Read-outs that look alike come from different tables or passages of the source.
Key:
Format in all cases: cell-based
[1] = tested on: Trypanosoma cruzi amastigotes cultured in 3T3 fibroblast cells; assay: Assay for growth inhibition of kinetoplastid parasite Trypanosoma cruzi (beta-galactosidase Tulahuen strain, CPRG readout); details: Trypanosoma cruzi, Fibroblast, read-out: Buckner infectious T. cruzi EC50
How it was run: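 3T3 fibroblasts (1,000 cells/well) plated overnight, treated with compound in DMSO, then infected with 10,000 Lac-Z-expressing Tulahuen trypomastigotes. After 6 days, 0.6 mM CPRG with 0.6% NP-40 added for 2 h at room temperature; absorbance gives relative intracellular amastigote numbers. Benznidazole and nifurtimox serve as positive controls.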

[2] = tested on: Trypanosoma brucei brucei (Lister 427) strain; assay: Assay for growth inhibition against Trypanosoma brucei brucei (Cell TiterGlo ATP luminescence); details: Trypanosoma brucei, read-out: T. Brucei (HAT) EC50
Method: Assay for Growth Inhibition Against Trypanosoma brucei brucei
The proliferation is quantified by the addition of Cell TiterGlo® (Promega®) a luminescent cell viability assay that measures the number of viable cells in culture based on the quantification of cellular ATP amount, which is an indicator of metabolically active cells.
Trypanosoma brucei brucei (Lister 427) strain was grown in Hirumi 9 (HMI-9) media supplemented with 10% v/v fetal bovine serum (FBS) and 10% v/v serum plus. For measurement of cell proliferation inhibition, test compounds were three fold serially diluted in duplicates to 384-well white plates, resulting in 10 dilutions for each compound. A volume of 40 μL of T. b. brucei culture (10,000 parasites/mL) was added to each well, and the assay plates were incubated at 37° C. for 2 days in a CO2 incubator. Growth inhibition was monitored by measuring ATP levels, which, is used as a surrogate marker for growth. Relative luminescence units were measured using TECAN® M1000 after 30 min of adding 40 μl of Cell TiterGlo®. IC50 values were determined by analyzing the data using HELIOS software. IC50 is defined as the lowest concentration of the compound that inhibited 50% growth of the T. b. brucei wild type strain compared to untreated controls.

[3] = tested on: Leishmania donovani axenic amastigote; assay: In vitro assay for growth inhibition of Leishmania donovani axenic amastigote (Cell TiterGlo luminescence); details: Leishmania donovani, read-out: L. donovani amastigotes EC50
How it was run: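 Compound-treated wells received 9600 axenic amastigotes in RPMI 1640-based medium at pH 5.5 (37 °C, 5% CO2). Growth measured as ATP luminescence (CellTiter-Glo) after 2-day incubation; DMSO and reference compounds served as controls.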

[4] = T. cruzi amastigotes in 3T3 fibroblast cells
[5] = L. donovani axenic amastigotes in vitro

Compound	EC50 [1, 4] [nM]	EC50 ([2]; T. brucei brucei (Lister 427)) [nM]	EC50 [3, 5] [nM]	EC50 [1] [nM]	EC50 [2] [nM]	EC50 [3] [nM]
CN1CCN(c2cnc3nn(-c4cc(NC(=O)N5CC(F)C5)ccc4F)cc3c2)CC1 [Compound 179, 3-fluoro-N-{4-fluoro-3-[5-(4-methylpiperazin-1-yl)-2H-pyrazolo[3,4-b]pyridin-2-yl]phenyl}azetidine-1-carboxamide]	43	< 23	410			
Cc1nc(C)c(C(=O)Nc2ccc(F)c(-n3cc4cc(-c5ncccc5C)cnc4n3)c2)o1 [Compound 1, N-(4-fluoro-3-(5-(3-methylpyridin-2-yl)-2H-pyrazolo[3,4-b]pyridin-2-yl)phenyl)-2,4-dimethyloxazole-5-carboxamide]				5.2	< 23	7.1
CC(C)c1cnc2nn(-c3cc(NC(=O)N4CC(F)C4)ccc3F)cc2c1 [Compound 156, 3-fluoro-N-{4-fluoro-3-[5-(propan-2-yl)-2H-pyrazolo[3,4-b]pyridin-2-yl]phenyl}azetidine-1-carboxamide]	5.1	< 23	9.3			
CC1(O)CN(c2cnc3nn(-c4cc(NC(=O)N5CC(F)C5)ccc4F)cc3c2)C1 [Compound 251, 3-fluoro-N-{4-fluoro-3-[5-(3-hydroxy-3-methylazetidin-1-yl)-2H-pyrazolo[3,4-b]pyridin-2-yl]phenyl}azetidine-1-carboxamide]	367	5	24			
O=C(Nc1ccc(F)c(-n2cc3cc(-c4ccccn4)cnc3n2)c1)c1ccc(F)o1 [Compound 11, 5-fluoro-N-(4-fluoro-3-(5-(pyridin-2-yl)-2H-pyrazolo[3,4-b]pyridin-2-yl)phenyl)furan-2-carboxamide]	1	> 50000	2.8			
O=C(Nc1ccc(F)c(-n2cc3cc(CC4CCC4)cnc3n2)c1)N1CC(F)C1 [Compound 26, N-{3-[5-(cyclobutylmethyl)-2H-pyrazolo[3,4-b]pyridin-2-yl]-4-fluorophenyl}-3-fluoroazetidine-1-carboxamide]	12	< 23	9.6			
O=C(Nc1ccc(F)c(-n2cc3cc(N4CCS(=O)(=O)CC4)cnc3n2)c1)N1CC(F)C1 [Compound 178, N-{3-[5-(1,1-dioxo-1$|^6,4-thiomorpholin-4-yl)-2H-pyrazolo[3,4-b]pyridin-2-yl]-4-fluorophenyl}-3-fluoroazetidine-1-carboxamide]	1600	36	160			
O=C(Nc1ccc(F)c(-n2cc3cc(C(F)(F)F)cnc3n2)c1)N1CC(F)C1 [Compound 321, 3-fluoro-N-{4-fluoro-3-[5-(trifluoromethyl)-2H-pyrazolo[3,4-b]pyridin-2-yl]phenyl}azetidine-1-carboxamide]	11	5	18			
O=C(Nc1ccc(F)c(-n2cc3cc(C4CCC4)cnc3n2)c1)N1CC[C@@H](F)C1 [Compound 45, (3R)-N-(3-{5-cyclobutyl-2H-pyrazolo[3,4-b]pyridin-2-yl}-4-fluorophenyl)-3-fluoropyrrolidine-1-carboxamide]	28	< 23	40			
CC(C)c1cnc2nn(-c3cc(NC(=O)c4ccc(C#N)o4)ccc3F)cc2c1 [Compound 112, 5-cyano-N-{4-fluoro-3-[5-(propan-2-yl)-2H-pyrazolo[3,4-b]pyridin-2-yl]phenyl}furan-2-carboxamide]	2.8	< 23	16			
COC(=O)C12CC(C(=O)Nc3ccc(F)c(-n4cc5cc(C(C)C)cnc5n4)c3)(C1)C2 [Compound 120, methyl 3-({4-fluoro-3-[5-(propan-2-yl)-2H-pyrazolo[3,4-b]pyridin-2-yl]phenyl}carbamoyl)bicyclo[1.1.1]pentane-1-carboxylate]	4300	1800	5200			
O=C(Nc1ccc(F)c(-n2cc3cc(-c4ccncc4)cnc3n2)c1)N1CC(F)C1 [Compound 182, 3-fluoro-N-(4-fluoro-3-(5-(pyridin-4-yl)-2H-pyrazolo[3,4-b]pyridin-2-yl)phenyl)azetidine-1-carboxamide]	6.7	< 23	7.6			
O=C(Nc1ccc(F)c(-n2cc3cc(C(F)(F)F)cnc3n2)c1)N1CC[C@@H](F)C1 [Compound 322, (3R)-3-fluoro-N-{4-fluoro-3-[5-(trifluoromethyl)-2H-pyrazolo[3,4-b]pyridin-2-yl]phenyl}pyrrolidine-1-carboxamide]	3	5	12			
[2H]C([2H])([2H])N(C(=O)Nc1ccc(F)c(-n2cc3cc(C(C)C)cnc3n2)c1)C([2H])([2H])[2H] [Compound 219, 1-{4-fluoro-3-[5-(propan-2-yl)-2H-pyrazolo[3,4-b]pyridin-2-yl]phenyl}-3,3-bis(^2H3)methylurea]	15	17	34			
CC(C)c1cnc2nn(-c3cc(NC(=O)N4CCC4)ccc3F)cc2c1 [Compound 100, N-{4-fluoro-3-[5-(propan-2-yl)-2H-pyrazolo[3,4-b]pyridin-2-yl]phenyl}azetidine-1-carboxamide]	4.2	< 23	9.2			
CC(C)c1cnc2nn(-c3cc(NC(=O)N4CC5(CCC5)C4)ccc3F)cc2c1 [Compound 226, N-{4-fluoro-3-[5-(propan-2-yl)-2H-pyrazolo[3,4-b]pyridin-2-yl]phenyl}-2-azaspiro[3.3]heptane-2-carboxamide]	129	343	134			
O=C(Nc1ccc(F)c(-n2cc3cc(C(F)(F)F)cnc3n2)c1)N1CCC1 [Compound 320, N-{4-fluoro-3-[5-(trifluoromethyl)-2H-pyrazolo[3,4-b]pyridin-2-yl]phenyl}azetidine-1-carboxamide]	2	5	8			
O=C(Nc1ccc(F)c(-n2cc3cc(N4CCN(CC(F)(F)F)CC4)cnc3n2)c1)N1CC[C@@H](F)C1 [Compound 253, (3R)-3-fluoro-N-(4-fluoro-3-{5-[4-(2,2,2-trifluoroethyl)piperazin-1-yl]-2H-pyrazolo[3,4-b]pyridin-2-yl}phenyl)pyrrolidine-1-carboxamide]	4	5	3			
CC(C)c1cnc2nn(-c3cc(NC(=O)C4CC(F)(F)C4)ccc3F)cc2c1 [Compound 118, 3,3-difluoro-N-{4-fluoro-3-[5-(propan-2-yl)-2H-pyrazolo[3,4-b]pyridin-2-yl]phenyl}cyclobutane-1-carboxamide]	1100	1400	690			
CC(C)c1cnc2nn(-c3cc(NC(=O)N4CC5(CC5)C4)ccc3F)cc2c1 [Compound 222, N-{4-fluoro-3-[5-(propan-2-yl)-2H-pyrazolo[3,4-b]pyridin-2-yl]phenyl}-5-azaspiro[2.3]hexane-5-carboxamide]	45	73	80			
CCN(C)C(=O)Nc1ccc(F)c(-n2cc3cc(C(C)C)cnc3n2)c1 [Compound 224, 3-ethyl-1-{4-fluoro-3-[5-(propan-2-yl)-2H-pyrazolo[3,4-b]pyridin-2-yl]phenyl}-3-methylurea]	46	67	111			
Cc1cc(C(=O)Nc2ccc(F)c(-n3cc4cc(C(C)C)cnc4n3)c2)oc1C [Compound 114, N-{4-fluoro-3-[5-(propan-2-yl)-2H-pyrazolo[3,4-b]pyridin-2-yl]phenyl}-4,5-dimethylfuran-2-carboxamide]	45	54	310			
O=C(Nc1ccc(F)c(-n2cc3cc(N4CC(O)C4)cnc3n2)c1)N1CC(F)C1 [Compound 181, 3-fluoro-N-{4-fluoro-3-[5-(3-hydroxyazetidin-1-yl)-2H-pyrazolo[3,4-b]pyridin-2-yl]phenyl}azetidine-1-carboxamide]	820	< 23	25			
O=C(Nc1ccc(F)c(-n2cc3cc(-n4cccn4)cnc3n2)c1)N1CC(F)C1 [Compound 319, 3-fluoro-N-{4-fluoro-3-[5-(1H-pyrazol-1-yl)-2H-pyrazolo[3,4-b]pyridin-2-yl]phenyl}azetidine-1-carboxamide]	1	5	1			
CC(C)c1cnc2nn(-c3cc(NC(=O)c4cc5ccccc5o4)ccc3F)cc2c1 [Compound 116, N-{4-fluoro-3-[5-(propan-2-yl)-2H-pyrazolo[3,4-b]pyridin-2-yl]phenyl}-1-benzofuran-2-carboxamide]	880	1500	3100			

From patent publication US11384078B2, “5,6-fused-bicyclic compounds and compositions for the treatment of parasitic diseases” (NOVARTIS AG, priority 2017, dated 2022)
